Assay results: US20070110714A1 (priority 2003, published 2007)

Assays:
[1] = tested on: Monocyte-derived DCs from healthy donors (N-DC); test: MICA/B expression in stimulated DC by flow cytometry (N-DC); type: cell-based, human; details: N-DC stimulated 24 hours with cytokine at day 6
[2] = tested on: Monocyte-derived DCs from HCV-infected patients (HCV-DC); test: MICA/B expression in stimulated DC by flow cytometry (HCV-DC); type: cell-based, human; details: HCV-DC stimulated 24 hours with cytokine at day 6
pseudo type VSV-E1E2 [3] = type: cell-based
VSV? G-G = type: cell-based
MDC = type: cell-based, human
HCV = type: cell-based
pseudo type VSV-E1E2 [4] = type: cell-based; remark: listed apart in the source
NK cells [5] = test: NK cell activation by co-culture with stimulated N-DC (K562 cytolytic assay, intracellular IFN? expression); type: cell-based, human
Method: (§1) NK cells were isolated from PBM of a healthy donor, and labeled with a concentrated antibody cocktail for NK cell, then, labeled with magnetic colloid (StemCell Technologies (Vancouver, BC, Canada)). 90% or more of the cells were CD56+CD3-lymphocytes. The concentrated NK cells were cultured with RPMI 1640 medium supplemented with 10% FCS and 10 U/mL penicillin/streptomycin, in a 24-well culture dish (5.0×10^5/well). DCs from a healthy individual (N-DC) or a HCV-infected individual (HCV-DC) were stimulated with IFNa (1000 U/mL) or IL-15 (50 ng/mL) for 24 hours, added to a well at a concentration of 1.0×10^5/mL, and co-cultured together with NK cells for 24 hours.
(§2) The cytolysis assay was carried out as described below. Target cells (K562) labeled with ^51Cr were incubated for 4 hours at various effecter/target ratios, in NK/DC co-culturing (with or without trans well system) or NK cell single culturing. After incubation, the supernatant was recovered, and ? counting was conducted. Maximum release or natural release was defined as counting from a sample incubated with 5% Triton-X or a sample incubated with only the medium, respectively. The cytolysis activity was calculated according to the following formula: Lysis %=(experimental value of release−natural release)×100/(maximum release−natural release)
(§3) Intracellular IFN? expression of an NK cell was assayed as described below. NK cells cultured for 24 hours together with DC as described above were incubated together with 10 ng/ml PMA and 1 μmol/L ionomycin (Sigma Aldrich). Next, after incubation at 37° C. for 4 hours in the presence of 1 μl/mL GolgiPlug (registered trademark)(BD-Phanmngen), NK cells were stained at 4° C. for 30 minutes with a PE-labeled CD56 monoclonal antibody. The cells were treated with Cytofix/Cytoperm (registered trademark) buffering solution (BD-Pharmingen) at room temperature for 15 minutes, then, stained with a FITC-labeled-anti-IFN? monoclonal antibody (mouse IgG1). The stained cells were analyzed by flow cytometry. […]

NK cells [6] = test: NK cell activation by co-culture with stimulated HCV-DC; type: cell-based, human; details: NK cells co-cultured with cytokine-stimulated HCV-DC
Method: as §1
as §2, with “Maximum release or natural release was defined as counting from a sample incubated with 5% Triton-X or a sample incubated with only the medium, respectively.” left out
Intracellular IFN? expression of an NK cell was assayed as described below. […] The stained cells were analyzed by flow cytometry. […]

NK cells [7] = test: NK cells cultured with IL-15 alone (K562 cytolytic activity and IFN? production); type: cell-based, human; details: newly isolated NK cells cultured 24 hours with 50 ng/mL IL-15, no DC
Method: as §2, §3

N-DC = test: Cytokine production of stimulated N-DC, ELISA of culture supernatant; type: cell-based, human; details: N-DC cultured 24 hours with 50 ng/ml IL-15
Method: (§4) N-DC and HCV-DC were stimulated with IFNa (1000 U/mL) for 24 hours(n=5 for each group). IL-15, IL-12p70, TNFa and IL-1β in each culture supernatant were measured by solid phase sandwich ELISA using a couple of specific monoclonal antibodies and a recombinant cytokine standard substance (IFNa/β, IL-12p70, TNFa and IL-1β, Endogen, Wobum, Mass.; IL-15, BD-Pharmingen). The limit thresholds of detection of these ELISA systems are as described below: IL-15, 3.7 pg/mL; IFNa/β, 17.5 pg/mL; IL-12p70, TNFa and IL-1β, 8.8 pg/mL.
(§5) N-DC and HCV-DC were cultured for 24 hours together with 50 ng/ml IL-15 in the presence or absence of an anti-IFNa/βR neutralization antibody (30 μg/mL)(n=5 for each group). IFNa and IFNβ in each culture supernatant were measured by ELISA.

HCV-DC = test: Cytokine production of stimulated HCV-DC, ELISA of culture supernatant; type: cell-based, human; details: HCV-DC cultured 24 hours with 50 ng/ml IL-15
Method: as §4, §5

[8] = NK cells co-cultured 24 hours with cytokine-stimulated N-DC

Molecule	MICA/B expression [1]	MICA/B expression [2]	percentage of VSV-E1E2-containing GFP+ cells (pseudo type VSV-E1E2 [3])	sensitivity against VSV? G-G (percentage of GFP+ cells) (VSV? G-G)	also measured
TNFa	did not induce MICA/B expression	did not induce MICA/B expression	decreased	decreased	–
polyI:C	–	–	decreased	decreased	–
IL-18: cytokine (R&D Systems)	did not induce MICA/B expression	did not induce MICA/B expression	–	–	–
CpG ODN 2006	–	–	decreases significantly	not influenced	expression of CD83 and CD86 (MDC): up-regulated
O=C(O)CN(CCN(CC(=O)O)CC(=O)O)CC(=O)O [EDTA]	–	–	–	–	percentage of GFP+ cell having VSV-E1E2 (pseudo type VSV-E1E2 [3]): did not decrease
GM-CSF: recombinant human GM-CSF (PeproTech)	–	–	–	–	proportion of GFP+ cells (median) (pseudo type VSV-E1E2 [3]): 1.5%
mannan	–	–	–	–	percentage of GFP+ cell having VSV-E1E2 (pseudo type VSV-E1E2 [3]): decreased in dose-dependent manner; disturbing effect on infection of MDC with true HCV (HCV): confirmed; infection of VSV-E1E2 in HepG2 cells (pseudo type VSV-E1E2 [4]): did not inhibit
O=C[C@H](O)[C@@H](O)[C@@H](O)[C@H](O)CO [galactose]	–	–	–	–	percentage of GFP+ cell having VSV-E1E2 (pseudo type VSV-E1E2 [3]): did not exert an influence
IL-15: cytokine (R&D Systems); claimed active ingredient, T cell growth factor stimulating dendritic cells	could apparently induce MICA/B	could apparently induce MICA/B	–	–	IFN? production of NK cells (NK cells [5]; [8]): increase; cytolytic activity for K562 cells (NK cells [5]; [8]): increase; K562 cytolytic activity (NK cells [5]; trans well: NK cells and IL-15 (50 ng/mL)-stimulated N-DC separated by 0.4 μm membrane, 24 hours): did not show increase in cylolytic ability; activation of NK cells (NK cells [6]): activated NK cells; activation of NK cells (K562 cytolytic activity and IFN? production) (NK cells [7]): could not activate NK cells; production of IFNa and IFNβ (N-DC): produced; production of IFNa and IFNβ (HCV-DC): produced
IL-12: cytokine (R&D Systems)	did not induce MICA/B expression	did not induce MICA/B expression	–	–	–
IL-4: recombinant human IL-4 (PeproTech) (protein, UniProt P05112 25-153, looked up) Interleukin-4: HKCDITLQEIIKTLNSLTEQKTLCTELTVTDIFAASKNTTEKETFCRAATVLRQFYSHHEKDTRCLGATAQQFHRHKQLIRFLKRLDRNLWGLAGLNSCPVKEANQSTLENFLERLKTIMREKYSKCSS	–	–	decreases significantly	not influenced	–
